Assay results taken from publication PMC9027581, “Characterization of Constituents with Potential Anti-Inflammatory Activity in Chinese Lonicera Species by UHPLC-HRMS Based Metabolite Profiling” (Metabolites, 2022).

What was measured:
NF-κB = test: NF-κB-driven luciferase reporter gene transactivation in TNF-α-stimulated HEK293/NF-κB-luc cells; type: cell-based; details: for NFκB % Inhibition (30 µM) / inhibition at 30 µM / IC50: HEK/NFκB-luc cells stimulated with TNF-α; for NFκB % Inhibition (30 µM) / inhibition at 30 µM: means ± SD of 4 replicates; for effect on NF-κB activation: pure compound, screening 30 µM; for inhibition at 30 µM / IC50: Homo sapiens, HEK293
Experimental: (§1) To evaluate the pharmacological activity of the extracts, all extracts were assayed in three different cellular in vitro models that are relevant in the context of inflammation. […] In these cells, the potential impact of the extracts on cell viability was assessed (Figure 2C).
(§2) Assays were performed as previously described. Extracts were dissolved in dimethyl sulfoxide (DMSO) and further diluted in cell culture medium to obtain a final concentration of 50 µg/mL; DMSO at the respective final concentration (<0.1%) was used as vehicle control in each assay. OPLS-DA candidate compounds were also dissolved in DMSO to obtain a final screening concentration of 30 µM.
Transactivation activity of a NF-κB-driven luciferase reporter gene was determined in TNF-α (2 ng/mL)-stimulated HEK293/NF-κB-luc cells (Panomics, RC0014), using 5 µM parthenolide (Sigma-Aldrich, St. Louis, MO, USA) as positive control. Differences in cell viability were detected by comparing the fluorescence of vehicle-treated cells and cells treated with sample solutions upon staining with CellTracker Green CMFDA (C2925; Invitrogen), a fluorescent probe that is retained inside living cells. Screening samples were tested in three independent experiments, each performed in quadruplicate.
(§3) To determine the IC50 values, pure compounds showing significant inhibitory activity at the screening concentration were tested at 5–10 concentrations, each with 4 replicates.

NO production = test: NO release from LPS/IFN-γ-stimulated RAW 264.7 macrophages (Griess); type: cell-based, mouse; details: for NO % Inhibition (30 µM) / inhibition at 30 µM: means ± SD of 3 experiments in duplicates; for effect on NO production: pure compound, screening 30 µM
Experimental: as §1, §2
After removing 50 µL of the supernatants to react with Griess reagent (Sigma Aldrich), cells were incubated with XTT reagent (XTT proliferation kit II, Sigma Aldrich). NO production (Griess reaction) and metabolic activity of the cells (XTT formazan product) were photometrically measured. Tests were performed in three independent experiments, each in duplicate.
as §3

IL-8 expression = IL-8 expression in LPS-stimulated HUVECtert cells; type: cell-based; details: for IL-8 % Inhibition (30 µM) / inhibition at 30 µM / IC50: HUVECtert cells stimulated with LPS; for IL-8 % Inhibition (30 µM) / inhibition at 30 µM: means ± SD of 5 replicates, b: one sample pooled from the 5 replicates; for effect on IL-8 expression: pure compound, screening 30 µM
Experimental: as §1, §2
[…] Impact of test samples on cell viability was determined after 6 h of stimulation by XTT. […] After incubation for 2 h, absorbance was measured at 450 nm. Samples decreasing cell viability by more than 30% were considered to negatively influence cell viability.
as §3

HUVECtert cells = test: Cell viability of HUVECtert cells (XTT); type: cell-based; design: key: ^+ compound significantly impaired cell viability at concentration of 30 µM; details: 30 µM, decrease of viability by more than 30%
Experimental: Effects on IL-8 expression were tested in hTERT-immortalized HUVECtert cells stimulated with lipopolysaccharide (LPS, 100 ng/mL, Sigma-Aldrich), with BAY 11-7082 (5 µM) as positive control. Activity screening was performed in sextuplicate. Impact of test samples on cell viability was determined after 6 h of stimulation by XTT. Incubation medium was removed, and 40 µL serum-free medium, containing XTT (Thermo Fisher Scientific, final concentration 200 µg/mL) and phenazine methyl sulfate (TCI Europe N.V., final concentration: 25 µM) were added to each well. After incubation for 2 h, absorbance was measured at 450 nm. Samples decreasing cell viability by more than 30% were considered to negatively influence cell viability.

[1] = LPS/IFNγ-stimulated RAW macrophages
[2] = Mus musculus, Macrophage, LPS/IFNγ-stimulated RAW macrophages

IC50 (NF-κB)	SMILES	effect on NF-κB activation (NF-κB)	inhibition at 30 µM (NF-κB; 30 µM)	inhibition at 30 µM (NO production; [2])	inhibition at 30 µM (IL-8 expression; 30 µM)	further results
–	C=C[C@H]1[C@H](O[C@@H]2O[C@H](CO)[C@@H](O)[C@H](O)[C@H]2O)OC=C(C(=O)OC)[C@H]1CC(=O)O [Compound 4, Secoxyloganin, reference compound]	–	–	–	–	NFκB % Inhibition (30 µM) (NF-κB; 30 µM): −17.25 ± 9.25%; NO % Inhibition (30 µM) (NO production; [1]): 5.85 ± 4.58%; IL-8 % Inhibition (30 µM) (IL-8 expression; 30 µM): −0.96 ± 6.01%
–	O=c1cc(-c2ccc(O)c(O)c2)oc2cc(O[C@@H]3O[C@H](CO)[C@@H](O)[C@H](O)[C@H]3O)cc(O)c12 [Compound 7, luteolin-7-O-glucoside, reference compound]	no activity	–	–	–	NFκB % Inhibition (30 µM) (NF-κB; 30 µM): 0.68 ± 4.29%; NO % Inhibition (30 µM) (NO production; [1]): 4.68 ± 9.82%; effect on NO production (NO production): no activity; IL-8 % Inhibition (30 µM) (IL-8 expression; 30 µM): 7.42 ± 2.04%; effect on IL-8 expression (IL-8 expression): no activity
6.84 µM	O=c1cc(-c2ccc(O)c(O)c2)oc2cc(O)cc(O)c12 [Compound 18, luteolin, reference compound]	–	95.83 ± 0.01%	56.4 ± 12.7%	74.8 ± 2.15%	IC50 (NO production; [2]): 31.8 µM
–	O=c1cc(-c2ccc(O)cc2)oc2cc(O)cc(O)c12 [Compound 21, apigenin]	–	–	24.3 ± 10.8%	64.8 ± 3.03%	IC50 (IL-8 expression): 18.9 µM
–	COc1cc(-c2cc(=O)c3c(OC)cc(O)cc3o2)cc(OC)c1OC [Compound 22, 7-hydroxy-5-methoxy-2-(3,4,5-trimethoxyphenyl)-chromen-4-one]	–	51.1 ± 2.86%	8.22 ± 11.9%	13.2 ± 2.49%	effect on NF-κB activation (NF-κB; listed as 7-hydroxy-5,3′,4′,5′-tetramethoxyflavone): weak inhibition
–	O=c1cc(-c2ccc(O)cc2)oc2c(-c3c(O)cc(O)c4c(=O)cc(-c5ccc(O)cc5)oc34)c(O)cc(O)c12 [Compound 26, 5,7,5′,7,-Tetrahydroxy-2,2′-bis-(4-hydroxy-phenyl)-[8,8′]bichromenyl-4,4′-dione]	–	3.42 ± 3.15%	9.61 ± 11.4%	-2.05 ± 3.02%	–
19.6 µM	COc1cc(-c2cc(=O)c3c(O)cc(O)c(-c4c(O)cc(O)c5c(=O)cc(-c6ccc(O)cc6)oc45)c3o2)ccc1O [Compound 27, 5,7,5′,7,-Tetrahydroxy-2-(4-hydroxy3-methoxy-phenyl)-2′-(4-hydroxy-phenyl)-[8,8′]bichromenyl-4,4′-dione]	moderately inhibited	78.1 ± 8.86%	1.45 ± 7.78%	3.5 ± 4.58%	–
–	COc1cc(-c2cc(=O)c3c(O)cc(O)c(-c4c(O)cc(O)c5c(=O)cc(-c6ccc(O)c(OC)c6)oc45)c3o2)ccc1O [Compound 29, 5,7,5′,7,-Tetrahydroxy-2,2′-bis-(4-hydroxy-3-methoxy-phenyl)-[8,8′]bichromenyl-4,4′-dione]	–	31.2 ± 15.5%	-0.85 ± 3.84%	2.97 ± 9.92%	NF-κB Activity (NF-κB; class from Table 5 data, 30 µM): (a)
6.45 µM	O=c1cc(-c2ccc(O)c(-c3c(O)cc(O)c4c(=O)cc(-c5ccc(O)cc5)oc34)c2)oc2cc(O)cc(O)c12 [Compound 32, amentoflavone, reference compound]	potently inhibited	90.8 ± 3.43%	7.06 ± 10.6%	9.35 ± 2.78%	–
3.44 µM	COc1ccc(-c2cc(=O)c3c(O)cc(O)c(-c4cc(-c5cc(=O)c6c(O)cc(O)cc6o5)ccc4O)c3o2)cc1 [Compound 33, podocarpusflavone A, reference compound]	potently inhibited	99.2 ± 1.25%	3.42 ± 3.94%	40.2 ± 29.8%	IC50 (IL-8 expression): 47.9 µM; effect on IL-8 expression (IL-8 expression): moderately inhibited
3.04 µM	C=Cc1c(C)c2cc3nc(c4c5[nH]c(cc6nc(cc1[nH]2)C(C)=C6CC)c(C)c5C(=O)[C@@H]4C(=O)OC)[C@@H](CCC(=O)O)[C@@H]3C [Compound 52, pheophorbide A, reference compound]	pronounced inhibition	74.7 ± 13.6%	5.48 ± 7.55%	95.8%	effect on NO production (NO production): did not inhibit; IL-8 Activity (IL-8 expression; class from Table 5 data, 30 µM): a/ct; effect on IL-8 expression (IL-8 expression): inhibited IL-8 production; impaired cell viability (flag, IL-8 assay) (HUVECtert cells): +
